Target: Nischarin / imidazoline I1 receptor (Rattus norvegicus)
Test: Displacement of [125I]p-iodoclonidine from imidazoline receptor I-1 in rat pheochromocytoma cells

Compound	Ki [µM]
CC(CC1=NCCN1)c1ccccc1 (stereo not given)	6.03
CC(Oc1ccccc1)C1=NCCN1 (stereo not given)	0.309
C[C@@H](CC1=NCCN1)c1ccccc1	7.24

More lines, now with the values ahead:

Ki [µM]	Compound
3.71	c1ccc(CCC2=NCCN2)cc1 [2-Phenethyl-4,5-dihydro-1H-imidazole]
0.589	C[C@H](CC1=NCCN1)c1ccccc1
